Earlier results as cited in patent publication US12683165B2, “Positive electrode additive for lithium secondary battery, positive electrode active material comprising same, positive electrode, and lithium secondary battery” (LG ENERGY SOLUTION, LTD., priority 2021, dated 2026).

Conditions: ether-based or carbonate-based solvent of a lithium-sulfur secondary battery electrolyte solution

## O=c1[nH]c(=O)c2c3ccc4cccc5c6cccc7ccc(c12)c(c76)c3c45 [BPI, benzo[ghi]peryleneimide]
  dissolution in electrolyte solution solvent: tends to be dissolved
